The values that follow come from patent US20100189683A1, “Pulsatile Dosing of Gossypol for Treatment of Disease” (Ascenta Therapeutics, Inc., priority 2008, published 2010).

Marks after values point to notes of the source that are not given here.

The subject of the experiment is patients with advanced cancer. The experiment is described as follows: Clinical efficacy (stable disease for 60 days or more) of (−)-gossypol by dosing schedule. It counts as in vivo, human. The protocol:
Following (−)-gossypol administration to patients with advanced cancer, clinical efficacy (e.g., patients having stable disease for 60 days or more) was monitored according to the following dosing schedules: “Daily” dosing: 5 to 60 mg/day of (−)-gossypol on 21 days per 28 day cycle; “BID×3d” dosing: 30 to 80 mg BID of (−)-gossypol on 3 consecutive days (e.g., Monday-Tuesday-Wednesday) repeated every other week per 28 day cycle; and “Weekly” dosing: 80 to 200 mg of (−)-gossypol once weekly per 28 day cycle. […] Tumor types represented in this study included: non-small cell lung cancer, non-Hodgkin lymphoma, chronic lymphocytic leukemia/small lymphocytic lymphoma, colon cancer, breast cancer, small cell lung cancer, head and neck cancer, sarcoma, hepatocellular cancer, pancreatic cancer, esophageal cancer, cholangiocarcinoma, carcinoid/neuroendocrine cancer, Hodgkin's lymphoma, endometrial cancer, adrenal cancer, melanoma, gastrointestinal stromal tumor, renal cancer, bladder cancer, and ovarian cancer.

Consider `Cc1cc2c(C(C)C)c(O)c(O)c(C=O)c2c(O)c1-c1c(C)cc2c(C(C)C)c(O)c(O)c(C=O)c2c1O` [(−)-gossypol], for which the “Median # (%) of patients with stable disease ≧60 days” value reads like this: (BID × 3 d, N = 21) 6 (24) # (%); (Daily, N = 38) 6 (16) # (%); (Weekly, N = 12) 2 (13) # (%). The “Median duration of days of stable disease (range)” value (shortened to “Median duration of days … (range)”) (BID × 3 d, N = 21) is on record as 180 (72-443) days; the “Median duration of days … (range)” value (Daily, N = 38) is recorded as 82 (56-341) days; the “Median duration of days … (range)” value (Weekly, N = 12) is listed as 69 (58-80) days. The “Median duration of days of stable disease” value (pulsatile dosing (BID×3d) as compared to continuous daily dosing) is “longer median duration of days of stable disease”.
